# Reference: PMC12298827, “Subchronic Toxicities of Four Per- and Polyfluoroalkyl Substances (PFASs) by Oral Exposure in Sprague–Dawley Rats” (Toxics, 2025)
# System: male and female Sprague–Dawley rats
# Assay: 90-day subchronic oral gavage toxicity study
# Assay type: in vivo, rat
# Parameters: key to NOEL, absolute liver weight increase / LOEL, absolute liver weight increase / NOEL, relative kidney weight increase / LOEL, relative kidney weight increase / NOEL, absolute kidney weight increase / LOEL, absolute kidney weight increase / NOEL, relative liver weight increase / LOEL, relative liver weight increase: NR: no response, no statistically significant dose-dependent changes
# Procedure, shortened: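 Rats dosed daily by oral gavage in corn oil (3 mL/kg) for 90 days, five dose levels plus control, n = 10/sex/group, euthanized SD 91. Endpoints: clinical observation, bodyweight, feed intake, FOB/locomotor activity, ophthalmology, terminal hematology, serum chemistry, coagulation, plasma parent PFAS, organ weights, histopathology. Groups vs control by ANOVA/Dunnett's (p<0.05).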
structure (smiles),measurement,setting,value
"O=C(O)C(F)(Cl)C(F)(F)F (centres unmarked) [CTFPA, 2-Chloro-2,3,3,3-tetrafluoropropanoic acid]",Liver Weight,"female, 100 mg/kg-day",11.31 g
same,Liver/Body Weight,"female, 100 mg/kg-day",3.57%
same,Liver/Brain Weight,"female, 100 mg/kg-day",575%
same,MPV,"female, 100 mg/kg-day",8.01 ± 0.50 fL
same,PT,"female, 100 mg/kg-day",14.22 s
same,Total BW change,"female, 100 mg/kg-day",107.34 g
same,Total Food Consumed,"female, 100 mg/kg-day",1615 g
same,"BMDL, absolute liver weight increase",male,11.6 mg/kg-day
same,"LOEL, absolute kidney weight increase",male,NR
same,"LOEL, absolute liver weight increase",male,7.5 mg/kg-day
same,"LOEL, relative kidney weight increase",male,NR
same,"LOEL, relative liver weight increase",male,3.8 mg/kg-day
same,"NOEL, absolute kidney weight increase",male,NR
same,"NOEL, absolute liver weight increase",male,3.8 mg/kg-day
same,"NOEL, relative kidney weight increase",male,NR
same,"NOEL, relative liver weight increase",male,1.9 mg/kg-day
same,% BW Gain,"male, 1.9 mg/kg-day",125.06%
same,"% Diff, % BW Gain","male, 1.9 mg/kg-day",-0.26%
same,"% Diff, Total BW change","male, 1.9 mg/kg-day",-0.03%
same,"% Diff, Total Food Consumed","male, 1.9 mg/kg-day",0.81%
same,A/G,"male, 1.9 mg/kg-day",0.95±0.07 ratio
same,ALB,"male, 1.9 mg/kg-day",3.35 ± 0.17 g/dL
same,ALPi,"male, 1.9 mg/kg-day",139.8±40.4 U/L
same,APTT,"male, 1.9 mg/kg-day",18.83 s
same,BUN,"male, 1.9 mg/kg-day",14.8 ± 1.8 mg/dL
same,CHOL,"male, 1.9 mg/kg-day",84.4 ± 9.8 mg/dL
same,GLOB,"male, 1.9 mg/kg-day",3.52 ± 0.20 g/dL
same,GLUC,"male, 1.9 mg/kg-day",170.1 ± 32.6 mg/dL
same,HCT,"male, 1.9 mg/kg-day",50.28±1.93%
same,HGB,"male, 1.9 mg/kg-day",15.58 ± 0.65 g/dL
same,Kidney Weight,"male, 1.9 mg/kg-day",3.12 g
same,Kidney/Body Weight,"male, 1.9 mg/kg-day",0.56%
same,Kidney/Brain Weight,"male, 1.9 mg/kg-day",150%
same,Liver Weight,"male, 1.9 mg/kg-day",14.47 g
same,Liver/Body Weight,"male, 1.9 mg/kg-day",2.58%
same,Liver/Brain Weight,"male, 1.9 mg/kg-day",697%
same,MPV,"male, 1.9 mg/kg-day",7.50 ± 0.37 fL
same,PT,"male, 1.9 mg/kg-day",15.55 s
same,Total BW change,"male, 1.9 mg/kg-day",316.63 g
same,Total Food Consumed,"male, 1.9 mg/kg-day",2084 g
same,% BW Gain,"male, 3.8 mg/kg-day",137.76%
same,"% Diff, % BW Gain","male, 3.8 mg/kg-day",9.87%
same,"% Diff, Total BW change","male, 3.8 mg/kg-day",11.95%
same,"% Diff, Total Food Consumed","male, 3.8 mg/kg-day",9.08%
same,A/G,"male, 3.8 mg/kg-day",0.93±0.20 ratio
same,ALB,"male, 3.8 mg/kg-day",3.29 ± 0.48 g/dL
same,ALPi,"male, 3.8 mg/kg-day",131.8±40.1 U/L
same,APTT,"male, 3.8 mg/kg-day",16.21 s
same,BUN,"male, 3.8 mg/kg-day",15.6 ± 2.5 mg/dL
same,CHOL,"male, 3.8 mg/kg-day",79.3 ± 17.3 mg/dL
same,GLOB,"male, 3.8 mg/kg-day",3.65 ± 0.66 g/dL
same,GLUC,"male, 3.8 mg/kg-day",173.7 ± 32.5 mg/dL
same,HCT,"male, 3.8 mg/kg-day",49.12±2.10%
same,HGB,"male, 3.8 mg/kg-day",15.20 ± 0.71 g/dL
same,Kidney Weight,"male, 3.8 mg/kg-day",3.35 g
same,Kidney/Body Weight,"male, 3.8 mg/kg-day",0.56%
same,Kidney/Brain Weight,"male, 3.8 mg/kg-day",152%
same,Liver Weight,"male, 3.8 mg/kg-day",17.18 g
same,Liver/Body Weight,"male, 3.8 mg/kg-day",2.85%
same,Liver/Brain Weight,"male, 3.8 mg/kg-day",780%
same,MPV,"male, 3.8 mg/kg-day",7.79 ± 0.46 fL
same,PT,"male, 3.8 mg/kg-day",15.25 s
same,Total BW change,"male, 3.8 mg/kg-day",354.57 g
same,Total Food Consumed,"male, 3.8 mg/kg-day",2255 g
same,% BW Gain,"male, 7.5 mg/kg-day",145.16%
same,"% Diff, % BW Gain","male, 7.5 mg/kg-day",15.76%
same,"% Diff, Total BW change","male, 7.5 mg/kg-day",18.72%
same,"% Diff, Total Food Consumed","male, 7.5 mg/kg-day",13.5%
same,A/G,"male, 7.5 mg/kg-day",1.05±0.14 ratio
same,ALB,"male, 7.5 mg/kg-day",3.39 ± 0.32 g/dL
same,ALPi,"male, 7.5 mg/kg-day",159.9±63.1 U/L
same,APTT,"male, 7.5 mg/kg-day",14.52 s
same,BUN,"male, 7.5 mg/kg-day",15.5 ± 2.2 mg/dL
same,CHOL,"male, 7.5 mg/kg-day",74.2 ± 8.5 mg/dL
same,GLOB,"male, 7.5 mg/kg-day",3.24 ± 0.19 g/dL
same,GLUC,"male, 7.5 mg/kg-day",165.6 ± 25.1 mg/dL
same,HCT,"male, 7.5 mg/kg-day",47.49±2.30%
same,HGB,"male, 7.5 mg/kg-day",14.52 ± 0.72 g/dL
same,Kidney Weight,"male, 7.5 mg/kg-day",3.47 g
same,Kidney/Body Weight,"male, 7.5 mg/kg-day",0.56%
same,Kidney/Brain Weight,"male, 7.5 mg/kg-day",159%
same,Liver Weight,"male, 7.5 mg/kg-day",20.01 g
same,Liver/Body Weight,"male, 7.5 mg/kg-day",3.24%
same,Liver/Brain Weight,"male, 7.5 mg/kg-day",912%
same,MPV,"male, 7.5 mg/kg-day",7.61 ± 0.38 fL
same,PT,"male, 7.5 mg/kg-day",15.14 s
same,Total BW change,"male, 7.5 mg/kg-day",376.00 g
same,Total Food Consumed,"male, 7.5 mg/kg-day",2345 g
same,% BW Gain,"male, 15 mg/kg-day",135.14%
same,"% Diff, % BW Gain","male, 15 mg/kg-day",7.78%
same,"% Diff, Total BW change","male, 15 mg/kg-day",8.09%
same,"% Diff, Total Food Consumed","male, 15 mg/kg-day",14.6%
same,A/G,"male, 15 mg/kg-day",1.16±0.11 ratio
same,ALB,"male, 15 mg/kg-day",3.56 ± 0.21 g/dL
same,ALPi,"male, 15 mg/kg-day",237.6±66.2 U/L
same,APTT,"male, 15 mg/kg-day",12.89 s
same,BUN,"male, 15 mg/kg-day",15.8 ± 2.4 mg/dL
same,CHOL,"male, 15 mg/kg-day",63.6 ± 10.8 mg/dL
same,GLOB,"male, 15 mg/kg-day",3.07 ± 0.19 g/dL
same,GLUC,"male, 15 mg/kg-day",175.2 ± 15.8 mg/dL
same,HCT,"male, 15 mg/kg-day",47.72±2.58%
same,HGB,"male, 15 mg/kg-day",14.62 ± 0.84 g/dL
same,Kidney Weight,"male, 15 mg/kg-day",3.40 g
same,Kidney/Body Weight,"male, 15 mg/kg-day",0.58%
same,Kidney/Brain Weight,"male, 15 mg/kg-day",147%
same,Liver Weight,"male, 15 mg/kg-day",20.28 g
same,Liver/Body Weight,"male, 15 mg/kg-day",3.47%
same,Liver/Brain Weight,"male, 15 mg/kg-day",873%
same,MPV,"male, 15 mg/kg-day",7.56 ± 0.43 fL
same,PT,"male, 15 mg/kg-day",15.24 s
same,Total BW change,"male, 15 mg/kg-day",342.33 g
same,Total Food Consumed,"male, 15 mg/kg-day",2368 g
same,% BW Gain,"male, 30 mg/kg-day",121.40%
same,"% Diff, % BW Gain","male, 30 mg/kg-day",-3.18%
same,"% Diff, Total BW change","male, 30 mg/kg-day",-0.72%
same,"% Diff, Total Food Consumed","male, 30 mg/kg-day",10.33%
same,A/G,"male, 30 mg/kg-day",1.19±0.12 ratio
same,ALB,"male, 30 mg/kg-day",3.72 ± 0.22 g/dL
same,ALPi,"male, 30 mg/kg-day",282.9±80.3 U/L
same,APTT,"male, 30 mg/kg-day",12.13 s
same,Absolute and relative thymus weights,"male, 30 mg/kg-day",significantly increased
same,BUN,"male, 30 mg/kg-day",18.7 ± 2.7 mg/dL
same,CHOL,"male, 30 mg/kg-day",68.5 ± 10.0 mg/dL
same,GLOB,"male, 30 mg/kg-day",3.14 ± 0.22 g/dL
same,GLUC,"male, 30 mg/kg-day",175.3 ± 23.2 mg/dL
same,HCT,"male, 30 mg/kg-day",47.32±2.15%
same,HGB,"male, 30 mg/kg-day",14.44 ± 0.69 g/dL
same,Kidney Weight,"male, 30 mg/kg-day",3.35 g
same,Kidney/Body Weight,"male, 30 mg/kg-day",0.60%
same,Kidney/Brain Weight,"male, 30 mg/kg-day",148%
same,Liver Weight,"male, 30 mg/kg-day",21.52 g
same,Liver/Body Weight,"male, 30 mg/kg-day",3.82%
same,Liver/Brain Weight,"male, 30 mg/kg-day",954%
same,MPV,"male, 30 mg/kg-day",7.54 ± 0.47 fL
same,PT,"male, 30 mg/kg-day",15.74 s
same,Total BW change,"male, 30 mg/kg-day",314.42 g
same,Total Food Consumed,"male, 30 mg/kg-day",2281 g
